# Data from PubChem BioAssay (NCI).
#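 All cell lines were grown in 96-well plates and treated with compound for 48 hours. GI50 marks 50% less growth. TGI is the concentration that stops growth completely.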
# Tests used:
# Experiment in all cases: DTP human tumour cell line panel, 48 h
# [1] = test system: NCI-H23 lung
# [2] = test system: SF-268 CNS
# [3] = test system: CCRF-CEM leukemia
# [4] = test system: HL-60(TB) leukemia
# [5] = test system: TK-10 renal
# [6] = test system: A549 NSCLC
# [7] = test system: BT-549 breast
# [8] = test system: SNB-19 CNS
# [9] = test system: HOP-62 NSCLC
# [10] = test system: NCI-H522 lung
# [11] = test system: RXF 393 renal
# [12] = test system: COLO 205 colon
# [13] = test system: A498 renal
# [14] = test system: HT29 colon
# [15] = test system: U251 CNS
# [16] = test system: M14 melanoma
# [17] = test system: OVCAR-5 ovarian
# [18] = test system: NCI-H226 lung
# [19] = test system: OVCAR-8 ovarian
# [20] = test system: CAKI-1 renal
# [21] = test system: RPMI-8226 leukemia
# [22] = test system: SW-620 colon
# [23] = test system: SK-OV-3 ovarian
# [24] = test system: SN12C renal
# [25] = test system: MDA-MB-231 breast
# [26] = test system: OVCAR-3 ovarian
# [27] = test system: T-47D breast
# [28] = test system: UACC-257 melanoma
# [29] = test system: SR leukemia
# [30] = test system: SK-MEL-5 melanoma
# [31] = test system: UO-31 renal
# [32] = test system: SK-MEL-2 melanoma
# [33] = test system: KM12 colon
# [34] = test system: HCT-15 colon
# [35] = test system: UACC-62 melanoma
# [36] = test system: NCI-H460 lung
# [37] = test system: SF-539 CNS
# [38] = test system: MALME-3M melanoma
# [39] = test system: MCF7 breast
# [40] = test system: IGROV1 ovarian
# [41] = test system: SNB-75 CNS
# [42] = test system: 786-0 renal
# [43] = test system: ACHN renal
# [44] = test system: MOLT-4 leukemia
# [45] = test system: HCT-116 colon
# [46] = test system: NCI/ADR-RES ovarian
# [47] = test system: PC-3 prostate
# [48] = test system: SF-295 CNS
# [49] = test system: HS 578T breast
# [50] = test system: LOX IMVI melanoma
# [51] = test system: MDA-MB-435
# [52] = test system: HCC-2998 colon
# [53] = test system: OVCAR-4 ovarian
# [54] = test system: SK-MEL-28 melanoma
# [55] = test system: K-562 leukemia
# [56] = test system: HOP-92 NSCLC
# [57] = test system: DU-145 prostate
smiles,measurement,setting,value
CCN(Cc1ccc(F)cc1)c1ccc(CO)c(F)c1,GI50,[1],17.5 µM
same,TGI,[1],> 94.6 µM
same,GI50,[2],24.8 µM
same,TGI,[2],> 92.3 µM
same,GI50,[3],21.5 µM
same,TGI,[3],> 74.6 µM
same,GI50,[4],12.8 µM
same,TGI,[4],37.3 µM
same,GI50,[5],0.625 µM
same,TGI,[5],3.07 µM
same,GI50,[6],10.5 µM
same,TGI,[6],> 66.1 µM
same,GI50,[7],12.5 µM
same,TGI,[7],39.4 µM
same,GI50,[8],27.3 µM
same,TGI,[8],> 100 µM
same,GI50,[9],15.2 µM
same,TGI,[9],> 100 µM
same,GI50,[10],14.1 µM
same,TGI,[10],35.8 µM
same,GI50,[11],5.47 µM
same,TGI,[11],25.9 µM
same,GI50,[12],10.8 µM
same,TGI,[12],27.6 µM
same,GI50,[13],0.114 µM
same,TGI,[13],0.252 µM
same,GI50,[14],16 µM
same,TGI,[14],> 53.9 µM
same,GI50,[15],12.5 µM
same,TGI,[15],> 63 µM
same,GI50,[16],20.4 µM
same,TGI,[16],> 67.5 µM
same,GI50,[17],1.26 µM
same,TGI,[17],4.13 µM
same,GI50,[18],0.171 µM
same,TGI,[18],0.364 µM
same,GI50,[19],16.2 µM
same,TGI,[19],> 84.5 µM
same,GI50,[20],3.74 µM
same,TGI,[20],36.4 µM
same,GI50,[21],7.13 µM
same,TGI,[21],33.7 µM
same,GI50,[22],7.09 µM
same,TGI,[22],> 100 µM
same,GI50,[23],15.9 µM
same,TGI,[23],80.7 µM
same,GI50,[24],19.5 µM
same,TGI,[24],99.1 µM
same,GI50,[25],18.9 µM
same,TGI,[25],> 69 µM
same,GI50,[26],5.38 µM
same,TGI,[26],18 µM
same,GI50,[27],1.35 µM
same,TGI,[27],8.31 µM
same,GI50,[28],2.33 µM
same,TGI,[28],9.29 µM
same,GI50,[29],15.1 µM
same,TGI,[29],45.1 µM
same,GI50,[30],10.9 µM
same,TGI,[30],24.2 µM
same,GI50,[31],8.67 µM
same,TGI,[31],54.4 µM
same,GI50,[32],10.5 µM
same,TGI,[32],26.8 µM
same,GI50,[33],22.9 µM
same,TGI,[33],> 71.8 µM
same,GI50,[34],10.4 µM
same,TGI,[34],> 88.1 µM
same,GI50,[35],1.62 µM
same,TGI,[35],7.42 µM
same,GI50,[36],3.93 µM
same,TGI,[36],20.4 µM
same,GI50,[37],18.8 µM
same,TGI,[37],56.5 µM
same,GI50,[38],18.7 µM
same,TGI,[38],43.9 µM
same,GI50,[39],6.03 µM
same,TGI,[39],60.7 µM
same,GI50,[40],1.26 µM
same,TGI,[40],5.03 µM
same,GI50,[41],10 µM
same,TGI,[41],> 86.4 µM
same,GI50,[42],12.6 µM
same,TGI,[42],36.6 µM
same,GI50,[43],14.9 µM
same,TGI,[43],> 100 µM
same,GI50,[44],21.2 µM
same,TGI,[44],57.6 µM
same,GI50,[45],2.38 µM
same,TGI,[45],13.5 µM
same,GI50,[46],18 µM
same,TGI,[46],68.7 µM
same,GI50,[47],21.6 µM
same,TGI,[47],94.6 µM
same,GI50,[48],5.7 µM
same,TGI,[48],31.7 µM
same,GI50,[49],17.2 µM
same,TGI,[49],> 75.5 µM
same,GI50,[50],13.9 µM
same,TGI,[50],31.2 µM
same,GI50,[51],22.8 µM
same,TGI,[51],> 72.4 µM
same,GI50,[52],18.7 µM
same,TGI,[52],54.6 µM
same,GI50,[53],3.93 µM
same,TGI,[53],27.6 µM
same,GI50,[54],32 µM
same,TGI,[54],> 100 µM
same,GI50,[55],7.46 µM
same,TGI,[55],> 73.5 µM
same,GI50,[56],9.52 µM
same,TGI,[56],37.9 µM
same,GI50,[57],23.5 µM
same,TGI,[57],> 100 µM
